# What was measured:
# /Mphg human cell system = experiment: BioMAP Diversity PLUS primary human cell phenotypic profiling, /Mphg system; format: cell-based; details: 6.7 and/or 20 μM, 24 to 72 hours
# Description: (§1) It was hypothesized that, given the compounds' associations with lower risks of comorbidities of aging in long-lived dolphins, the compounds of the embodiments would have relevant activities in human cell systems mimicking conditions related to the quality of aging and longevity. To test this hypothesis, 12 primary human cell systems from the BioMAP Diversity PLUS® panel (Eurofins/DiscoverX, Fremont, Calif.) mimicking inflammation and fibrosis relevant to chronic inflammation, liver disease, respiratory disease, skin disease, wound healing, scarring, allergies, asthma, autoimmune disease, cancer, and cardiovascular disease, were exposed to pure, synthetic forms of the selected compounds at one or two concentrations (6.7 and/or 20 μM). Quantitative measurements of 148 biomarker activities across this broad panel, along with comparative analysis of biological activities from known bioactive agents, were used to predict and compare the efficacy and function of the targeted compounds across these systems compared to non-treated control systems. Activated BioMAP systems were incubated with the targeted compounds for 24 to 72 hours. Biomarker activities were considered significant when biomarker values were outside of the 95th percentile significance envelope and had at least one concentration with an effect size >20% (log 10 ratio) >0.1. FIG. 2 describes the different cell systems.
# (§2) The summary is of relevant diseases and tissues treated with selected compounds at 6.7 to 20 μM, based on primary human cell phenotypic profiling.
# LPS human cell system = experiment: BioMAP Diversity PLUS primary human cell phenotypic profiling, LPS system; format: cell-based; details: 6.7 and/or 20 μM, 24 to 72 hours
# Description: as §1, §2
# BE3C human cell system = experiment: BioMAP Diversity PLUS primary human cell phenotypic profiling, BE3C system; format: cell-based; details: 6.7 and/or 20 μM, 24 to 72 hours
# Description: as §1, §2
# 3C human cell system = experiment: BioMAP Diversity PLUS primary human cell phenotypic profiling, 3C system; format: cell-based; details: 6.7 and/or 20 μM, 24 to 72 hours
# Description: as §1, with “cell systems. […]” for “cell systems.”
# BT human cell system = experiment: BioMAP Diversity PLUS primary human cell phenotypic profiling, BT system; format: cell-based; details: 6.7 and/or 20 μM, 24 to 72 hours
# Description: as §1, §2
# CASM3C human cell system = experiment: BioMAP Diversity PLUS primary human cell phenotypic profiling, CASM3C system; format: cell-based; details: coronary artery smooth muscle cell proliferation, 6.7 and/or 20 μM, 24 to 72 hours
# Description: as §1, with “cell systems. […]” for “cell systems.”
# 4H human cell system = experiment: BioMAP Diversity PLUS primary human cell phenotypic profiling, 4H system; format: cell-based; details: 6.7 and/or 20 μM, 24 to 72 hours
# Description: as §1, §2
# SAg human cell system = experiment: BioMAP Diversity PLUS primary human cell phenotypic profiling, SAg system; format: cell-based; details: T cell proliferation, 6.7 and/or 20 μM, 24 to 72 hours
# Description: as §1, §2
# KF3CT human cell system = experiment: BioMAP Diversity PLUS primary human cell phenotypic profiling, KF3CT system; format: cell-based; details: 6.7 and/or 20 μM, 24 to 72 hours
# Description: as §1, §2
# BF4T human cell system = experiment: BioMAP Diversity PLUS primary human cell phenotypic profiling, BF4T system; format: cell-based; details: 6.7 and/or 20 μM, 24 to 72 hours
# Description: as §1, with “cell systems. […]” for “cell systems.”
# MyoF human cell system = experiment: BioMAP Diversity PLUS primary human cell phenotypic profiling, MyoF system; format: cell-based; details: 6.7 and/or 20 μM, 24 to 72 hours
# Description: as §1, §2
# [1] = room temperature; cited from earlier work
smiles,measurement,setting,value
N[C@@H](CCC(=O)N[C@@H](Cc1c[nH]cn1)C(=O)O)C(=O)O [gamma-glutamylhistidine],"CXCL8, Log10 ratio of treated vs. non-treated systems",/Mphg human cell system,−0.15
same,"CD40, Log10 ratio of treated vs. non-treated systems",LPS human cell system,−0.11
same,"E-selectin, Log10 ratio of treated vs. non-treated systems",LPS human cell system,−0.11
same,"MMP-1, Log10 ratio of treated vs. non-treated systems",BE3C human cell system,−0.10
same,"Tissue factor, Log10 ratio of treated vs. non-treated systems",3C human cell system,−0.12
same,"TNF-α (sTNF-α), Log10 ratio of treated vs. non-treated systems",BT human cell system,−0.18
same,"Proliferation, Log10 ratio of treated vs. non-treated systems",CASM3C human cell system,0.11
O=C(O)CNC(=O)c1ccccc1 [hippurate],"CXCL8, Log10 ratio of treated vs. non-treated systems",/Mphg human cell system,−0.12
same,"CD40, Log10 ratio of treated vs. non-treated systems",LPS human cell system,−0.11
same,"MMP-1, Log10 ratio of treated vs. non-treated systems",BE3C human cell system,−0.11
same,"P-selectin, Log10 ratio of treated vs. non-treated systems",4H human cell system,−0.10
same,"Proliferation, Log10 ratio of treated vs. non-treated systems",CASM3C human cell system,−0.10
O[C@H]1[C@H](O)[C@@H](O)[C@H](O)[C@@H](O)[C@H]1O [myo-inositol],"Proliferation, Log10 ratio of treated vs. non-treated systems",SAg human cell system,−0.20
same,"IL-1α, Log10 ratio of treated vs. non-treated systems",/Mphg human cell system,−0.10
same,"CXCL10, Log10 ratio of treated vs. non-treated systems",KF3CT human cell system,−0.26
same,"IL-1α, Log10 ratio of treated vs. non-treated systems",KF3CT human cell system,−0.11
same,"MMP-9, Log10 ratio of treated vs. non-treated systems",KF3CT human cell system,−0.18
same,"PAI-1, Log10 ratio of treated vs. non-treated systems",KF3CT human cell system,−0.27
same,"CXCL8, Log10 ratio of treated vs. non-treated systems",BE3C human cell system,−0.26
same,"CXCL10, Log10 ratio of treated vs. non-treated systems",BE3C human cell system,−0.58
same,"CXCL11, Log10 ratio of treated vs. non-treated systems",BE3C human cell system,−0.28
same,"EGFR, Log10 ratio of treated vs. non-treated systems",BE3C human cell system,−0.11
same,"HLA-DR, Log10 ratio of treated vs. non-treated systems",BE3C human cell system,−0.10
same,"ICAM-1, Log10 ratio of treated vs. non-treated systems",BE3C human cell system,−0.11
same,"MMP-9, Log10 ratio of treated vs. non-treated systems",BE3C human cell system,−0.25
same,"PAI-1, Log10 ratio of treated vs. non-treated systems",BE3C human cell system,−0.18
same,"IL-17A (sIL-17A), Log10 ratio of treated vs. non-treated systems",BT human cell system,−0.12
same,"TNF-α (sTNF-α), Log10 ratio of treated vs. non-treated systems",BT human cell system,−0.21
same,"sIL-2, Log10 ratio of treated vs. non-treated systems",BT human cell system,−0.16
same,"sIL-17F, Log10 ratio of treated vs. non-treated systems",BT human cell system,−0.15
same,"sIgG, Log10 ratio of treated vs. non-treated systems",BT human cell system,−0.62
same,"Eotaxin-3, Log10 ratio of treated vs. non-treated systems",BF4T human cell system,−0.19
same,"MCP-1, Log10 ratio of treated vs. non-treated systems",BF4T human cell system,−0.21
same,"MCP-1, Log10 ratio of treated vs. non-treated systems",4H human cell system,−0.13
same,"Collagen III, Log10 ratio of treated vs. non-treated systems",MyoF human cell system,−0.11
same,"Collagen IV, Log10 ratio of treated vs. non-treated systems",MyoF human cell system,0.24
same,"VCAM-1, Log10 ratio of treated vs. non-treated systems",MyoF human cell system,−0.11
"COc1cc(C(O)C(=O)O)ccc1O (stereo not drawn) [vanillylmandelate (VMA), vanillylmandelate]","CXCL8, Log10 ratio of treated vs. non-treated systems",/Mphg human cell system,−0.18
O=c1[nH]c(=O)c2ncn([C@@H]3O[C@H](CO)[C@@H](O)[C@H]3O)c2[nH]1 [xanthosine],"CXCL8, Log10 ratio of treated vs. non-treated systems",/Mphg human cell system,−0.13
same,Physical state and stability,[1],solid that is stable at room temperature
same,"CD40, Log10 ratio of treated vs. non-treated systems",LPS human cell system,−0.12
same,"Tissue factor, Log10 ratio of treated vs. non-treated systems",LPS human cell system,−0.13

# — patent US20210346419A1, “COMPOSITIONS AND METHODS FOR DIAGNOSIS AND TREATMENT OF CONDITIONS RELATED TO THE QUALITY OF AGING AND LONGEVITY” (EPITRACKER, INC., priority 2019, published 2021)
